Measured values published in patent US6362369B1, “Phthalic acid diamide derivatives fluorine-containing aniline compounds as starting material, agricultural and horticultural insecticides, and a method for application of the insecticides” (Nihon Nohyaku Co., Ltd., priority 1997, dated 2002).

Key:
[1] = system: diamondback moth (Plutella xylostella); assay: Insecticidal effect on diamondback moth (Test Example 1); format: in vivo; conditions: for Insecticidal effect, Test Example 1 / Insecticidal effect (Test Example 1), judged from mortality: diamondback moth; for Insecticidal effect (Test Example 1), judged from mortality: judged by the criterion of Test Example 1; for Insecticidal effect on diamondback moth (Test Example 1), judged grade: mortality judged according to the criterion shown in Test Example 1
Method in brief: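 Triplicate groups of 10 insects were scored: six days after immersion of oviposited Chinese cabbage seedlings and holding at 25 °C post air-drying, hatched larvae were counted. Mortality derived from these counts and insecticidal effect judged by a set criterion.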

[2] = system: rice leafroller (Cnaphalocrocis medinalis); assay: Insecticidal effect on rice leafroller (Test Example 3); format: in vivo; conditions: 500 ppm, 25° C., humidity 70%; for Insecticidal effect, Test Example 3: rice lamina immersed; for Insecticidal effect, Test Example 3 / Insecticidal effect on rice leafroller (Test Example 3), judged grade: four days after inoculation; for Insecticidal effect (Test Example 3), judged from mortality / Insecticidal effect on rice leafroller (Test Example 3), judged grade: rice lamina dip; for Insecticidal effect (Test Example 3), judged from mortality: 4 days after inoculation; for Insecticidal effect on rice leafroller (Test Example 3), judged grade: third-instar larvae
Method in brief: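 Insecticidal effect is judged by a predefined criterion from dead/alive counts four days after infesting air-dried lamina with third-instar larvae, kept on moistened filter paper at 25° C, 70% humidity.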

[3] = judged by the mortality criterion of Test Example 1
[4] = third-instar larvae of rice leafroller
[5] = mortality judged by criterion of Test Example 1
[6] = rice leafroller third-instar larvae

CCCNC(=O)c1c(C(=O)Nc2ccc(OC(F)F)cc2C)cccc1[N+](=O)[O-] [compound 17]
Insecticidal effect, Test Example 1 [1, 3]: A (100) | Insecticidal effect, Test Example 3 [2, 4]: D (79-50)

CCCN(CC)C(=O)c1c(I)cccc1C(=O)Nc1ccc(OC(F)F)cc1C [compound 1575]
Insecticidal effect (Test Example 1), judged from mortality [1]: A (100) | Insecticidal effect (Test Example 3), judged from mortality [2, 4]: A (100)

Cc1cc(SC(C)C)ccc1NC(=O)c1cccc(F)c1C(=O)NC(C)C [compound 518]
Insecticidal effect on diamondback moth (Test Example 1), judged grade [1]: A (100) | Insecticidal effect on rice leafroller (Test Example 3), judged grade [2]: B (99-90)

Cc1cc(OC(F)F)ccc1NC(=O)c1cc(F)ccc1C(=O)NC(C)C [compound 534]
Insecticidal effect on diamondback moth (Test Example 1), judged grade [1]: A (100) | Insecticidal effect on rice leafroller (Test Example 3), judged grade [2]: A (100)

CC(C)NC(=O)c1c(I)cccc1C(=O)Nc1ccc(Br)cc1C(F)(F)C(F)(F)F [compound 1409]
Insecticidal effect, Test Example 1 [1, 5]: A (100) | Insecticidal effect, Test Example 3 [2, 6]: A (100)

CNC(=O)c1c(C(=O)Nc2ccc(OC(F)F)cc2C)cccc1[N+](=O)[O-] [compound 4]
Insecticidal effect, Test Example 1 [1, 3]: A (100) | Insecticidal effect, Test Example 3 [2, 4]: D (79-50)

Cc1cc(C(F)(F)C(F)(F)F)ccc1NC(=O)c1cccc(Cl)c1C(=O)NCc1ccc(Cl)cc1 [compound 1333]
Insecticidal effect, Test Example 1 [1, 5]: A (100) | Insecticidal effect, Test Example 3 [2, 6]: A (100)

COc1ccc(NC(=O)c2c(Br)cccc2C(=O)NC(C)C)c(C)c1 [compound 322]
Insecticidal effect, Test Example 1 [1, 3]: A (100) | Insecticidal effect, Test Example 3 [2, 4]: B (99-90)

COc1ccc(NC(=O)c2cccc(Cl)c2C(=O)NC(C)C)c(C)c1 [compound 123]
Insecticidal effect, Test Example 1 [1, 3]: A (100) | Insecticidal effect, Test Example 3 [2, 4]: A (100)

CCCCc1ccc(NC(=O)c2cccc(Cl)c2C(=O)NC(C)C)cc1 [compound 87]
Insecticidal effect, Test Example 1 [1, 3]: A (100) | Insecticidal effect, Test Example 3 [2, 4]: A (100)

Cc1cc(C(F)(F)C(F)(F)F)ccc1NC(=O)c1c(C)cccc1C(=O)NC(C)C [compound 954]
Insecticidal effect, Test Example 1 [1, 5]: A (100) | Insecticidal effect, Test Example 3 [2, 6]: A (100)

CCC(COC)NC(=O)c1cccc(I)c1C(=O)Nc1ccc(C(F)(F)C(F)(F)F)cc1C (stereo not drawn) [compound 1014]
Insecticidal effect, Test Example 1 [1, 5]: A (100) | Insecticidal effect, Test Example 3 [2, 6]: A (100)

CC(C)NC(=O)c1cccc(Br)c1C(=O)Nc1ccc2c(c1)OCO2 [compound 337]
Insecticidal effect, Test Example 1 [1, 3]: A (100) | Insecticidal effect, Test Example 3 [2, 4]: A (100)

CC(C)NC(=O)c1cccc(Cl)c1C(=O)Nc1ccc2c(c1)nc(C(F)(F)F)n2C [compound 257]
Insecticidal effect, Test Example 1 [1, 3]: A (100) | Insecticidal effect, Test Example 3 [2, 4]: B (99-90)

CCNC(=O)c1c(Cl)cccc1C(=O)Nc1ccc(C(F)(F)C(F)(F)C(F)(F)F)cc1F [compound 1490]
Insecticidal effect (Test Example 1), judged from mortality [1]: A (100) | Insecticidal effect (Test Example 3), judged from mortality [2, 4]: A (100)

Cc1cc(OCC(F)(F)F)ccc1NC(=O)c1cccc([N+](=O)[O-])c1C(=O)NC(C)C [compound 697]
Insecticidal effect on diamondback moth (Test Example 1), judged grade [1]: A (100) | Insecticidal effect on rice leafroller (Test Example 3), judged grade [2]: A (100)

CC(C)NC(=O)c1c(I)cccc1C(=O)Nc1cccc2c1OC(F)(F)O2 [compound 1742]
Insecticidal effect (Test Example 1), judged from mortality [1]: A (100) | Insecticidal effect (Test Example 3), judged from mortality [2, 4]: A (100)

CCC(C)NC(=O)c1c(C(=O)Nc2ccc(OC(F)F)cc2C)cccc1[N+](=O)[O-] (stereo not drawn) [compound 839]
Insecticidal effect on diamondback moth (Test Example 1), judged grade [1]: A (100) | Insecticidal effect on rice leafroller (Test Example 3), judged grade [2]: C (89-80)

Cc1cc(OC(F)(F)Br)ccc1NC(=O)c1c(Br)cccc1C(=O)NC(C)C [compound 327]
Insecticidal effect, Test Example 1 [1, 3]: A (100) | Insecticidal effect, Test Example 3 [2, 4]: A (100)

Cc1ccc(Cl)cc1NC(=O)c1ccc(F)cc1C(=O)NC(C)C [compound 530]
Insecticidal effect on diamondback moth (Test Example 1), judged grade [1]: A (100) | Insecticidal effect on rice leafroller (Test Example 3), judged grade [2]: D (79-50)

CCNC(=O)c1c(F)cccc1C(=O)Nc1ccc(C(F)(F)C(F)(F)F)cc1F [compound 1510]
Insecticidal effect (Test Example 1), judged from mortality [1]: A (100) | Insecticidal effect (Test Example 3), judged from mortality [2, 4]: A (100)

CCC(CO)NC(=O)c1cccc(Cl)c1C(=O)Nc1ccc(C(F)(F)C(F)(F)F)cc1C (stereo not drawn) [compound 1441]
Insecticidal effect, Test Example 1 [1, 5]: A (100) | Insecticidal effect, Test Example 3 [2, 6]: A (100)

CC(C)NC(=O)c1cccc(I)c1C(=O)Nc1ccc(Br)cc1 [compound 412]
Insecticidal effect, Test Example 1 [1, 3]: A (100) | Insecticidal effect, Test Example 3 [2, 4]: C (89-80)

CC(C)NC(=O)c1c(Cl)cccc1C(=O)Nc1cc2c(cc1Cl)OC(F)(F)C(F)(F)O2 [compound 1643]
Insecticidal effect (Test Example 1), judged from mortality [1]: A (100) | Insecticidal effect (Test Example 3), judged from mortality [2, 4]: A (100)

Cc1cc(Cl)ccc1NC(=O)c1cccc(OC(F)F)c1C(=O)NC(C)C [compound 772]
Insecticidal effect on diamondback moth (Test Example 1), judged grade [1]: A (100) | Insecticidal effect on rice leafroller (Test Example 3), judged grade [2]: A (100)

CC(C)NC(=O)c1c(F)cccc1C(=O)Nc1ccc(C(F)(F)C(F)(F)F)cc1F [compound 1514]
Insecticidal effect (Test Example 1), judged from mortality [1]: A (100) | Insecticidal effect (Test Example 3), judged from mortality [2, 4]: A (100)

Cc1cc(OC(F)F)ccc1NC(=O)c1cccc(OC(F)F)c1C(=O)NC(C)C [compound 774]
Insecticidal effect on diamondback moth (Test Example 1), judged grade [1]: A (100) | Insecticidal effect on rice leafroller (Test Example 3), judged grade [2]: A (100)

CC(C)NC(=O)c1c(Cl)cccc1C(=O)Nc1ccc(SC(F)F)cc1 [compound 98]
Insecticidal effect, Test Example 1 [1, 3]: A (100) | Insecticidal effect, Test Example 3 [2, 4]: C (89-80)

CC(C)NC(=O)c1c(I)cccc1C(=O)Nc1cc(Cl)c(OC(F)F)c(Cl)c1 [compound 383]
Insecticidal effect, Test Example 1 [1, 3]: A (100) | Insecticidal effect, Test Example 3 [2, 4]: A (100)

Cc1cc(Br)ccc1NC(=O)c1c(Cl)cccc1C(=O)NC(C)C [compound 216]
Insecticidal effect, Test Example 1 [1, 3]: A (100) | Insecticidal effect, Test Example 3 [2, 4]: A (100)

Cc1cc(C(F)(F)C(F)(F)F)ccc1NC(=O)c1c(I)cccc1C(=O)NC(C)CO (stereo not drawn) [compound 1465]
Insecticidal effect (Test Example 1), judged from mortality [1]: A (100) | Insecticidal effect (Test Example 3), judged from mortality [2, 4]: A (100)

Cc1cccc(NC(=O)c2cccc(Br)c2C(=O)NC(C)C)c1C [compound 263]
Insecticidal effect, Test Example 1 [1, 3]: A (100) | Insecticidal effect, Test Example 3 [2, 4]: A (100)

Cc1cc(Oc2ncc(C(F)(F)F)cc2Cl)ccc1NC(=O)c1c(Br)cccc1C(=O)NC(C)C [compound 336]
Insecticidal effect, Test Example 1 [1, 3]: A (100) | Insecticidal effect, Test Example 3 [2, 4]: D (79-50)

Cc1ccc(Cl)cc1NC(=O)c1ccc2ccccc2c1C(=O)NC(C)C [compound 821]
Insecticidal effect on diamondback moth (Test Example 1), judged grade [1]: A (100) | Insecticidal effect on rice leafroller (Test Example 3), judged grade [2]: A (100)

Cc1ccc(NC(=O)c2c(Br)cccc2C(=O)NC(C)C)c(C)c1OC(F)F [compound 320]
Insecticidal effect, Test Example 1 [1, 3]: A (100) | Insecticidal effect, Test Example 3 [2, 4]: D (79-50)

Cc1cc(OC(F)(F)C(F)(F)Br)ccc1NC(=O)c1c(I)cccc1C(=O)NC(C)C [compound 444]
Insecticidal effect, Test Example 1 [1, 3]: A (100) | Insecticidal effect, Test Example 3 [2, 4]: A (100)

CCN(CC)C(=O)c1c(C(=O)Nc2ccc(OC(F)(F)F)cc2)cccc1[N+](=O)[O-] [compound 1136]
Insecticidal effect, Test Example 1 [1, 5]: A (100) | Insecticidal effect, Test Example 3 [2, 6]: A (100)

Cc1ccc(Cl)cc1NC(=O)c1cccc(C(F)(F)F)c1C(=O)NC(C)C [compound 755]
Insecticidal effect on diamondback moth (Test Example 1), judged grade [1]: A (100) | Insecticidal effect on rice leafroller (Test Example 3), judged grade [2]: A (100)

CC(C)NC(=O)c1c(C(=O)Nc2ccccc2C(C)C)cccc1[N+](=O)[O-] [compound 603]
Insecticidal effect on diamondback moth (Test Example 1), judged grade [1]: B (99-90) | Insecticidal effect on rice leafroller (Test Example 3), judged grade [2]: C (89-80)

Cc1cc(OC(F)(F)F)ccc1NC(=O)c1c(Cl)cccc1C(=O)NC(C)C [compound 237]
Insecticidal effect, Test Example 1 [1, 3]: A (100) | Insecticidal effect, Test Example 3 [2, 4]: A (100)

CC(C)NC(=O)c1c(Cl)cccc1C(=O)Nc1ccc(C=C(Cl)C(F)(F)F)cc1 [compound 911]
Insecticidal effect on diamondback moth (Test Example 1), judged grade [1]: A (100) | Insecticidal effect on rice leafroller (Test Example 3), judged grade [2]: D (79-50)

Cc1cc(SC(F)F)ccc1NC(=O)c1cccc([N+](=O)[O-])c1C(=O)NC(C)C [compound 722]
Insecticidal effect on diamondback moth (Test Example 1), judged grade [1]: A (100) | Insecticidal effect on rice leafroller (Test Example 3), judged grade [2]: A (100)

COc1ccc(NC(=O)c2c(Cl)cccc2C(=O)NC(C)C)c(C)c1 [compound 218]
Insecticidal effect, Test Example 1 [1, 3]: A (100) | Insecticidal effect, Test Example 3 [2, 4]: C (89-80)

Cc1cccc(CNC(=O)c2c(Cl)cccc2C(=O)Nc2ccc(C(F)(F)C(F)(F)F)cc2C)c1 [compound 1339]
Insecticidal effect, Test Example 1 [1, 5]: A (100) | Insecticidal effect, Test Example 3 [2, 6]: A (100)

CC(C)(C)NC(=O)c1ccccc1C(=O)Nc1ccc(C(F)(F)F)cc1 [compound 928]
Insecticidal effect on diamondback moth (Test Example 1), judged grade [1]: A (100) | Insecticidal effect on rice leafroller (Test Example 3), judged grade [2]: A (100)

Cc1cc(OC(F)(F)C(F)(F)c2ccccc2)ccc1NC(=O)c1ccccc1C(=O)NC(C)C [compound 1086]
Insecticidal effect, Test Example 1 [1, 5]: A (100) | Insecticidal effect, Test Example 3 [2, 6]: A (100)

Cc1cc(OC(F)(F)F)ccc1NC(=O)c1cccc(I)c1C(=O)NC(C)(C)CO [compound 1519]
Insecticidal effect (Test Example 1), judged from mortality [1]: A (100) | Insecticidal effect (Test Example 3), judged from mortality [2, 4]: A (100)

CCCN(CC)C(=O)c1c(F)cccc1C(=O)Nc1ccc(C(F)(F)C(F)(F)F)cc1Cl [compound 1584]
Insecticidal effect (Test Example 1), judged from mortality [1]: A (100) | Insecticidal effect (Test Example 3), judged from mortality [2, 4]: A (100)
